Measurements as given in PMC8041433 (Environmental Health Perspectives, 2021).
Values joined by “and” are separate entries in the source; they are usually repeats but may differ in a detail not shown here. Equal values may be shown once. Where a name gives a salt, the structure may show the parent alone. Read-outs that look alike come from different tables or passages of the source.

Key:
[1] = molecular target: AChE in SH-SY5Y cells (Homo sapiens, UniProt P22303); test: cell-based
[2] = molecular target: T1, recombinant human AChE (Homo sapiens, UniProt P22303); test: biochemical
[3] = molecular target: T1, recombinant human AChE
[4] = molecular target: T1, recombinant human AChE; test: biochemical; remark: listed apart in the source
[5] = molecular target: T1, recombinant human AChE; test: biochemical; format: biochemical; conditions: for AC50: AC50 (uM)
[6] = molecular target: AChE in neural stem cell spheroids (Homo sapiens, UniProt P22303); test: cell-based; conditions: for IC50: potency (IC50)
[7] = molecular target: AChE in SH-SY5Y spheroids (Homo sapiens, UniProt P22303); test: cell-based; conditions: potency (IC50)
[8] = molecular target: T1, recombinant human AChE; test: biochemical; remark: listed apart in the source
[9] = molecular target: AChE in neural stem cells (Homo sapiens, UniProt P22303); test: cell-based
[10] = Neural stem cell spheroid (24 h)
[11] = Neural stem cell spheroid (48 h)
[12] = potency (IC50), SH-SY5Y cells monolayer
[13] = potency (IC50), Enzyme with microsomes
Throughout, for IR or R: key: Reversible (R); Irreversible (IR); ND, not detected in enzyme-based AChE inhibition assay from current study.

T1 sequence (P22303 32-614): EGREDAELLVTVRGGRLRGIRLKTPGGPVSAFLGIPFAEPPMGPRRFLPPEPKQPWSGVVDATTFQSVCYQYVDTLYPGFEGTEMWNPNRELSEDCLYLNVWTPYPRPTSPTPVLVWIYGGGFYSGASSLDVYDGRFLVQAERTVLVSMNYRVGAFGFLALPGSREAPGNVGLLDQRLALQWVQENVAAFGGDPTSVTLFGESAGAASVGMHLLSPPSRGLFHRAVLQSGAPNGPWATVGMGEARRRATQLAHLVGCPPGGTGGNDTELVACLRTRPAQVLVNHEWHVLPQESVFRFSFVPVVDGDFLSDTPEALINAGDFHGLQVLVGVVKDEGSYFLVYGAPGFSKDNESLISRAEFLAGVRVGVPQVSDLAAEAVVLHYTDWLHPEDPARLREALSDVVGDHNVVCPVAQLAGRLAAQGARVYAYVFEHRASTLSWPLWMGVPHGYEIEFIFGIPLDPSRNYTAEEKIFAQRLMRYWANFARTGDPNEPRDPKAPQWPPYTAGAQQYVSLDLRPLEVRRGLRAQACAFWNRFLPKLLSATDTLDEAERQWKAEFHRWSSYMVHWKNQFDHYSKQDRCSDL
AChE in neural stem cells, sequence (P22303 32-614): as above
AChE in SH-SY5Y spheroids, sequence (P22303 32-614): as above
AChE in SH-SY5Y cells, sequence (P22303 32-614): as above
AChE in neural stem cell spheroids, sequence (P22303 32-614): as above

SMILES	CC-v2 (curve classes) [1]	CC-v2 (curve classes) [3]	Efficacy [3]	CC-v2 (curve classes) [4]	Efficacy [4]	IR or R [5]	AC50 [5]	IC50 [6, 10]	IC50 [6, 11]	IC50 ([1]; IC50 (uM))	IC50 [1, 12]	IC50 ([7]; SH-SY5Y spheroids (24 h))	IC50 ([7]; SH-SY5Y spheroids (48 h))	IC50 [8, 13]	IC50 [9]	other results
COc1ccc(OC(F)(F)F)cc1CN[C@H]1CCCN[C@H]1c1ccccc1 [CP-122721, reference compound]	4	4	0	4	0											potency (IC50), SH-SY5Y cells monolayer [1]: Inactive; potency (IC50), Enzyme-based assay with heat-inactivated microsomes [2]: Inactive; potency (IC50), Enzyme with microsomes [3]: Inactive; potency (IC50), Enzyme [4]: Inactive
CCN(CC)CCNC(=O)c1c(C)[nH]c(/C=C2\C(=O)Nc3ccc(F)cc32)c1C [Sunitinib malate, reference compound]	-1.1	-2.2	-53.539	-1.1	-78.177	R										
CNC(=O)Oc1cccc(N=CN(C)C)c1 [Formetanate hydrochloride]							63.1 µM and 56.2 µM (2×) and 50.1 µM and 70.7 µM and 44.6 µM and 39.8 µM									
Nc1c2c(nc3ccccc13)CCCC2O.O=C(O)/C=C\C(=O)O (centres unmarked) [Hydroxytacrine maleate, reference compound]	-1.1	-2.1	-93.06	-1.1	-95.079	R										
CNC(=O)Oc1cccc2ccccc12 [carbaryl]																reversibility of AChE inhibition (result in words) [5]: significant IC50 difference at 60 min
CCOP(=S)(OCC)Oc1cnc2ccccc2n1 [Quinalphos]	-2.1 and 4							1.64 µM	2.94 µM	35.6 µM	46.4 µM	29.4 µM	46.2 µM	1.77 µM	7.48 µM	IC50 [2]: 36.8 ± 4.7 µM; AC50 ([5]; activity_60): 49.8 µM and 62.7 µM; IC50 ([4]; potency (IC50), Enzyme): 55.9 µM
CCC1(c2cccc(O)c2)CCCCN(C)C1 (centres unmarked) [Meptazinol hydrochloride, reference compound]							4.64 µM and 9.25 µM and 3.68 µM and 5.2 µM and 8.25 µM and 5.84 µM and 6.55 µM									
O=C(CCC1CCN(Cc2ccccc2)CC1)c1ccc2c(c1)NCCCC2.O=C(O)/C=C/C(=O)O [Zanapezil fumerate, reference compound]	-1.1	-1.1	-97.158	-1.1	-97.056	R										
CCOP(=S)(OCC)Oc1ccc2c(C)c(Cl)c(=O)oc2c1 [Coumaphos]	4 and -1.1 and -2.1			4 and -2.2 and -2.1			24.3 µM and 27.3 µM	21.1 µM	21.4 µM	12.6 µM and 22.7 µM and 22.4 µM and 28.6 µM and 17.8 µM and 12.8 µM		27.1 µM	20.6 µM	5.51 µM	22.6 µM	potency (IC50), SH-SY5Y cells monolayer [1]: Inactive; potency (IC50), Enzyme-based assay with heat-inactivated microsomes [2]: Inactive; AChE inhibition (result in words) [4]: did not show effects; potency (IC50), Enzyme [4]: Inactive
CN1CCCC(n2nc(Cc3ccc(Cl)cc3)c3ccccc3c2=O)CC1 (centres unmarked) [Azelastine (hydrochloride), reference compound]						R	27.3 µM (3×) and 24.3 µM (2×) and 30.6 µM (2×)		4.45 µM		20.9 µM	13.8 µM	19.3 µM	27.4 µM	22.6 µM	potency (IC50), Neural stem cell spheroid (24 h) [6]: Inactive; IC50 [2]: 36.6 ± 10.3 µM; IC50 ([4]; potency (IC50), Enzyme): 25.4 µM
CCc1ccc(C(=O)C(C)CN2CCCCC2)cc1.Cl (centres unmarked) [Eperisone hydrochloride, reference compound]	-2.1	4	0	-2.2	-46.815	R	10.9 µM (3×) and 21.7 µM and 15.3 µM (2×) and 17.2 µM	15 µM	13.3 µM	15.5 µM	25.3 µM			38.7 µM	19.3 µM	IC50 [2]: 40.1 ± 2.71 µM; IC50 ([4]; potency (IC50), Enzyme): 27.4 µM
COP(N)(=S)Oc1ccccc1C(=O)OC(C)C (centres unmarked) [Isocarbophos]		-1.1	-89.537	4	0			29.9 µM	23.1 µM	89.4 µM	54.3 ± 9.25 µM		41.5 µM	8.21 µM	27.8 µM	IC50 [2]: 55.9 µM; IC50 ([8]; IC50 (uM)): 2.83 µM; AChE inhibition (result in words) [4]: did not show effects
CCOP(=S)(OCC)SCSC(C)(C)C [Terbufos]		-2.1		4	0			1.83 µM	2.75 µM	89.4 µM		2.19 µM	35.4 µM	4.27 µM	2.31 µM	potency (IC50), SH-SY5Y cells monolayer [1]: Inactive; potency (IC50), Enzyme-based assay with heat-inactivated microsomes [2]: Inactive; IC50 ([8]; IC50 (uM)): 56.4 µM and 40.2 µM; AChE inhibition (result in words) [4]: did not show effects; potency (IC50), Enzyme [4]: Inactive
COc1cc2c(N3CCN(C(=O)Nc4ccc(OC(C)C)cc4)CC3)ncnc2cc1OCCCN1CCCCC1 [Tandutinib, reference compound]	-2.1	4	-26.796	-2.1	-82.501	R										Efficacy [5]: -90.305
CCCCOc1ccc(C(=O)CCN2CCCCC2)cc1 [Dyclonine HCl, reference compound]						R	27.3 µM (3×) and 30.6 µM (3×) and 19.3 µM and 34.3 µM	16.3 ± 7.64 µM	9.18 ± 9.47 µM		20.2 ± 2.57 µM	17.4 ± 3.65 µM	23.5 ± 3.24 µM	31 ± 6.49 µM	21.8 ± 2.5 µM	IC50 [2]: 26.8 ± 10.1 µM; IC50 ([4]; potency (IC50), Enzyme): 20.9 ± 1.36 µM
[H]/N=C(\N/C(=N/[H])NCCCCCCNC(=N)NC(=N)Nc1ccc(Cl)cc1)Nc1ccc(Cl)cc1 [Chlorhexidine diacetate, reference compound]	-2.1	4	0	-2.1	-106.259	R	78.5 µM	8.31 µM	9.21 µM	56.1 µM and 70.6 µM	70.9 µM	36.1 µM	41 µM		32.5 µM	potency (IC50), Enzyme-based assay with heat-inactivated microsomes [2]: Inactive; potency (IC50), Enzyme with microsomes [3]: Inactive; IC50 ([4]; IC50 (uM)): 50 µM; IC50 ([4]; potency (IC50), Enzyme): 54.6 µM
COc1cc2nc(N(C)CCCNC(=O)C3CCCO3)nc(N)c2cc1OC (centres unmarked) [Alfuzosin hydrochloride, reference compound]							14.7 µM (3×) and 13.1 µM and 7.35 µM and 9.25 µM and 10.4 µM (2×)									
CCOP(=O)(OCC)Oc1nc(Cl)c(Cl)cc1Cl [Chlorpyrifos oxon, reference compound]	-1.1	-1.1	-96.78	-1.1	-95.546											reversibility of AChE inhibition (result in words) [5]: irreversibility
O=C(O)CC[N+](=O)[O-] [3-Nitropropionic acid]		-2.2	-41.028	-2.1	-85.687					8.94 µM and 11.2 µM and 2.24 µM						IC50 ([8]; IC50 (uM)): 71 µM; IC50 ([4]; IC50 (uM)): 28.3 µM
